# Molecular target: SHP2 (Homo sapiens (Human), UniProt Q06124)
# Assay: SHP2 Allosteric Inhibition Assay
# Format: biochemical
# Conditions: 0.5 nM SHP2 with 0.5 μM peptide IRS1_pY1172(dPEG8)pY1222; surrogate substrate DiFMUP; 25° C.; read-out: IC50
# Text: SHP2 Allosteric Inhibition Assay
# SHP2 is allosterically activated through binding of bis-tyrosyl-phosphorylated peptides to its Src Homology 2 (SH2) domains. The latter activation step leads to the release of the auto-inhibitory interface of SHP2, which in turn renders the SHP2 protein tyrosine phosphatase (PTP) active and available for substrate recognition and reaction catalysis. The catalytic activity of SHP2 was monitored using the surrogate substrate DiFMUP in a prompt fluorescence assay format.
# After 30-60 minutes incubation at 25° C., the surrogate substrate DiFMUP (Invitrogen, cat #D6567) was added to the reaction and incubated at 25° C. for 30 minutes. […] The inhibitor dose response curves were analyzed using normalized IC50 regression curve fitting with control based normalization.
row,SMILES,IC50 [nM]
1,"Cn1c(N2CCC3(CCC[C@H]3N)CC2)nc2n[nH]c(-c3cccc(Cl)c3Cl)c2c1=O [Example 2, (R)-6-(1-amino-8-azaspiro[4.5]decan-8-yl)-3-(2,3-dichlorophenyl)-5-methyl-2H-pyrazolo[3,4-d]pyrimidin-4(5H)-one]",25.5
2,"CC1(CN)CCN(c2nc3[nH]cc(-c4cccc(Cl)c4Cl)c3c(=O)[nH]2)CC1 [Example 3, 2-(4-(aminomethyl)-4-methylpiperidin-1-yl)-5-(2,3-dichlorophenyl)-3,7-dihydro-4H-pyrrolo[2,3-d]pyrimidin-4-one]",62
3,"Cn1c(N2CCC(C)(CN)CC2)nc2[nH]cc(-c3cccc(Cl)c3Cl)c2c1=O [Example 5, 2-(4-(aminomethyl)-4-methylpiperidin-1-yl)-5-(2,3-dichlorophenyl)-3-methyl-3H-pyrrolo[2,3-d]pyrimidin-4(7H)-one]",100
4,"C[C@@H]1OCC2(CCN(c3nc4[nH]nc(-c5cc(N)nc(Cl)c5Cl)c4c(=O)n3C)CC2)[C@@H]1N [Example 6, 3-(6-amino-2,3-dichloropyridin-4-yl)-6-((3S,4S)-4-amino-3-methyl-2-oxa-8-azaspiro[4.5]decan-8-yl)-5-methyl-1,5-dihydro-4H-pyrazolo[3,4-d]pyrimidin-4-one]",380
5,"CC(C)Nc1nccc(-c2n[nH]c3nc(N4CCC5(CC4)CO[C@@H](C)[C@H]5N)n(C)c(=O)c23)c1Cl [Example 7, 6-((3S,4S)-4-amino-3-methyl-2-oxa-8-azaspiro[4.5]decan-8-yl)-3-(3-chloro-2-(isopropylamino)pyridin-4-yl)-5-methyl-1,5-dihydro-4H-pyrazolo[3,4-d]pyrimidin-4-one]",34
6,"C[C@@H]1OCC2(CCN(c3nc4[nH]nc(-c5ccnc(N)c5Cl)c4c(=O)n3C)CC2)[C@@H]1N [Example 8, 3-(2-amino-3-chloropyridin-4-yl)-6-((3S,4S)-4-amino-3-methyl-2-oxa-8-azaspiro[4.5]decan-8-yl)-5-methyl-2,5-dihydro-4H-pyrazolo[3,4-d]pyrimidin-4-one]",36
7,"COc1nccc(-c2c[nH]c3nc(N4CCC5(CC4)CO[C@@H](C)[C@H]5N)n(C)c(=O)c23)c1Cl [Example 9, 2-((3S,4S)-4-amino-3-methyl-2-oxa-8-azaspiro[4.5]decan-8-yl)-5-(3-chloro-2-methoxypyridin-4-yl)-3-methyl-3,7-dihydro-4H-pyrrolo[2,3-d]pyrimidin-4-one]",26

# Next, values leading:
row,IC50 [nM],SMILES
1,26,"COc1nccc(-c2c[nH]c3nc(N4CCC5(CC4)CO[C@@H](C)[C@H]5N)[nH]c(=O)c23)c1Cl [Example 10, 2-((3S,4S)-4-amino-3-methyl-2-oxa-8-azaspiro[4.5]decan-8-yl)-5-(3-chloro-2-methoxypyridin-4-yl)-3H-pyrrolo[2,3-d]pyrimidin-4(7H)-one]"
2,86,"CC1(CN)CCN(c2cc3[nH]cc(-c4cccc(Cl)c4Cl)c3c(=O)[nH]2)CC1 [Example 11, 6-(4-(aminomethyl)-4-methylpiperidin-1-yl)-3-(2,3-dichlorophenyl)-1,5-dihydro-4H-pyrrolo[3,2-c]pyridin-4-one]"
3,39,"C[C@@H]1OCC2(CCN(c3cnc4c(-c5cccc(Cl)c5Cl)c[nH]c4n3)CC2)[C@@H]1N [Example 12, (3S,4S)-8-(7-(2,3-dichlorophenyl)-5H-pyrrolo[2,3-b]pyrazin-3-yl)-3-methyl-2-oxa-8-azaspiro[4.5]decan-4-amine]"
4,27,"C[C@@H]1OCC2(CCN(c3nc4[nH]nc(Sc5ccnc(N)c5Cl)c4c(=O)n3C)CC2)[C@@H]1N [Example 13, 3-((2-Amino-3-chloropyridin-4-yl)thio)-6-((3S,4S)-4-amino-3-methyl-2-oxa-8-azaspiro[4.5]decan-8-yl)-5-methyl-1,5-dihydro-4H-pyrazolo[3,4-d]pyrimidin-4-one]"

# — US10975080B2, “Compounds and compositions for inhibiting the activity of SHP2” (NOVARTIS AG, priority 2015, dated 2021)
